The values below come from paper PMC7791840, “The R-enantiomer of ketorolac reduces ovarian cancer tumor burden in vivo” (BMC Cancer, 2021).

Counter-ions that a name gives are not always drawn.

One data set deals with ovarian tumor cell. Also on record: method as in PMID 26071482, PMID 26558612, PMID 26206334. The settings on record: cited from earlier work.
Data set [1] is described as follows: Ketorolac enantiomers in mouse blood/serum by HPLC after two-week treatment. Format: in vivo, mice. From the text: For two-week tumor studies, 1 × 10^6 non-treated SKOV3ip-GFP cells were i.p. injected. All mice started R-ketorolac treatment one day prior to cell injection and continued treatment until conclusion of the study 14 days later. Mice were imaged using a Light Tools imaging system (Synopsys Optical Solutions, Westminster CO) with long pass GFP filters. Three images per mouse were captured to ensure all tumors were counted. Green fluorescent tumors were identified and counted in the peritoneal cavity as single tumors if there was a distinct border of non-fluorescent tissue. […] Blood was collected via cardiac puncture and ketorolac enantiomer concentrations were measured by HPLC analysis as described in Supplemental Methods (Additional File 1: Supplemental Methods). […]
SKOV3ip cells were modified to express GFP-Rac1 by transfection with pcDNA3-EGFP-Rac1-wt (Catalog # 12980, Addgene) as described for SKOV3ip-GFP cells under Methods. Rac1 overexpression quantification and verification was completed by western blot and qPCR. […]
Omental tissue was harvested and stored on ice in PBS for no more than 1 hour before analysis. Omenta were blotted dry on lab tissue and weight was measured using an analytical balance (Denver Instruments Company, A -160). […]
Samples were then centrifuged at 4000x g for 10 minutes at 4°C. […] Ketorolac was detected using a UV spectrometer set at UV310. […]

The subject of the next data set is Rac1. Also on record: method as in earlier work. The settings on record: cell-based assays, ovarian tumor cells; ref 23 (R-ketorolac), 27 (S-ketorolac); cited from earlier work.
Data set [2] can be described thus: Toxicity assessment, blood chemistry after chronic treatment. The settings on record: tumor-bearing mice, 5 mg/kg/d, 25 days, Average ± SD. It is filed as in vivo. The protocol:
For toxicity assessment studies at an increased R-ketorolac dose of 5 mg/kg/d, athymic nude female mice were purchased from Charles River Laboratory (Wilmington, MA, strain code 490). Mice were injected i.p. with 1 × 10^6 SKOV3ip-RLuc-GFP cells suspended in sterile saline. Xenografts were established until tumors reached a bioluminescence imaging (BLI) value of ~ 3 × 10^8 radiance (IVIS SpectrumCT, PerkinElmer, Waltham MA). Mice were conditioned to placebo pills once a day for no less than 3 days during xenograft growth, then randomized to receive placebo or 5 mg/kg/d R-ketorolac for 25 days. Blood was collected via cardiac puncture and 0.2–0.4 mL was added to Lithium Heparin tubes (BD Microtainer, Ref #365965). Samples were mixed thoroughly immediately after filling the tube by gently inverting the tube by hand. Samples were kept and analyzed at room temperature within 60 min of collection. For each sample analysis 100 μl of blood was added to Abaxis Comprehensive Diagnostic Profile cassette (Abaxis, Inc. Union City, CA Ref. # 500–0038-24) and values obtained using Abaxis VetScan2 analyzer.

The conditions of data set [3]: mouse, in vivo.
Experimental: Foxn1^nu NU /J athymic nude female mice, aged 6–9 weeks, were purchased from The Jackson Laboratory (Bar Harbor, ME, stock number 002019). […] Mice were maintained at a controlled temperature of 22–23 °C, with a 12-h light/12-h dark cycle. Water and standard mouse chow were available ad libitum. […] Their health status was monitored throughout the experiment. […] Mice were euthanized using a CO2 chamber in accordance with the recommendation of the Panel on Euthanasia of the American Veterinary Medical Association. Cervical dislocation was then carried out to confirm death before tumor analysis and tissue collection.
In a further data set the test system is SKOV3ip-GFP cells. The experiment in a line: Short-term omental engraftment assay. It is filed as in vivo, mice. To be noted: 18 h post i.p. injection; 1 mg/kg oral every 12 h; cells pretreated with 10 μM; vs placebo. As to the method:
Mice were conditioned to placebo pills for two days prior to drug treatment. […] Consumption was confirmed by visual observation. […] Omenta were harvested from animals 18 h post-injection and placed in ice cold 1X phosphate-buffered saline (PBS) until imaged with an Olympus IX70 inverted fluorescent microscope and Olympus CellSens software. SKOV3ip-GFP cells were subsequently digested from the omentum using 10% NP-40 substitute (Sigma, cat# 74385) in 1X PBS for 30 min at 37 °C. Omenta were gently homogenized using disposable micropestles, centrifuged, and fluorescence intensity was measured using a […] Spectramax M2 plate spectrophotometer (ex:480 nm, em:520 nm).

For data set [4] the following is noted: humans, multiple dosing regimens over 5 days; cited from earlier work.
[5] abbreviates: ROS model for points below limit of detection.

Broadly, the IC50 is the midpoint of a concentration-inhibition curve. With `O=C(c1ccccc1)c1ccc2n1CC[C@H]2C(=O)O` [R-ketorolac], the “Ovarian tumor cell adhesion, migration and invadopodia formation” value with ovarian tumor cell was “inhibited ovarian tumor cell adhesion, migration and invadopodia formation”. The Cytotoxicity result in the data set with ovarian tumor cell (ovarian tumor cells) is “without cytotoxicity”. The “Accumulation with repeated dosing” value in data set [1] (mice, daily dosing 14 days) is given as “does not appear to accumulate with repeated dosing”. Moreover, the concentration at 14 day in data set [1] (mouse, serum, at conclusion of chronic administration (14 day) tumor study, 1 mg/kg twice daily oral, read-out: Steady state blood concentration of R-ketorolac) is approximately 1400 ng/mL. For the same molecule, the IC50 with Rac1 is 0.57 µM. Besides, in data set [2], the Alanine aminotransferase is 32.30 ± 11.35 U/L, the Albumin is 4.05 ± 0.40 g/dL, the Amylase was 1069 ± 264 U/L and the “Blood Urea Nitrogen” value amounted to 16.4 ± 2.59 mg/dL. Moreover, in data set [2], the Calcium came out at 11.58 ± 0.79 mg/dL, the Globulin was determined as 1.77 ± 0.43 g/dL, the Glucose is recorded as 287.7 ± 81.31 mg/dL and the “Mouse Weight” value is listed as 23.67 ± 1.30 g. In data set [2], the Phosphorus was determined as 9.86 ± 1.90 mg/dL, the Sodium is on record as 151.3 ± 4.11 mmol/L, the “Total Bilirubin” value was 0.26 ± 0.05 mg/dL and the “Total Protein” value was determined as 5.79 ± 0.34 g/dL. Further, in data set [2] (setting [5]), the Alkaline phosphatase is on record as 28.97 ± 18.75 U/L and the Creatinin was 0.24 ± 0.13 mg/dL. Besides, in data set [3], the Body weight result is “No significant difference in body weight”. Also, the “Omental engraftment (GFP fluorescence, omental localization of SKOV3ip-GFP cells)” value in the data set with SKOV3ip-GFP cells was “decreased the omental localization of SKOV3ip-GFP cells”.
As for `O=C(c1ccccc1)c1ccc2n1CCC2C(=O)O` (stereo not shown) [R−/S-ketorolac, ketorolac tromethamine salt], the “Accumulation of enantiomers with multiple dosing” value in data set [4] is listed as “did not result in accumulation of either enantiomer”.
